Measurements: patent publication US8362090B2, “Methods and related compositions using specific flavonoids and indanes to reduce weight and inhibit lipase, α-amylase and α-glucosidase activity in mammals” (Gateway Health Alliances, Inc., priority 2007, dated 2013)

Columns and labels:
Human pancreatic lipase = molecular target: T1, Human pancreatic lipase (Homo sapiens, UniProt P16233); experiment: Lipase assay (Sigma Lipase-PS Kit); format: biochemical; details: same top concentration (0.15 mg/ml)
T1 construct: purchased Sigma
T1 sequence (P16233 17-465): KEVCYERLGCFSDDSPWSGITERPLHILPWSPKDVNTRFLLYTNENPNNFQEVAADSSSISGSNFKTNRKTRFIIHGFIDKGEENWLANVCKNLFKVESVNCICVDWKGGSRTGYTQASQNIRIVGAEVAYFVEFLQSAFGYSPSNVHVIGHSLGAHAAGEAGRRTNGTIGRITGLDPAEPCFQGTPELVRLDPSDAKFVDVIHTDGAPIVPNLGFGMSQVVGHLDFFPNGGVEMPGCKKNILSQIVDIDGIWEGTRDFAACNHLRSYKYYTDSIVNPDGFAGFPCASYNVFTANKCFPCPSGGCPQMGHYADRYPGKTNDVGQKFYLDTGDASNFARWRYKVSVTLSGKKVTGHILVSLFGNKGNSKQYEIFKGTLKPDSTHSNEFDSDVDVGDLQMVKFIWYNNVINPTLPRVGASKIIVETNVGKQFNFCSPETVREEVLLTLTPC
T1 sequence (P02703 23-112 partner): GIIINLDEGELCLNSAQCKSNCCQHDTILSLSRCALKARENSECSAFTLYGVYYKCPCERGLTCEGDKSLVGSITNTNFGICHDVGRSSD
Experimental: (§1) The purified compounds and extracts were made up 2 mg/ml solutions in water using initially a drop of DMSO if required for solubility.
Sigma Lipase-PS Kit (Catalogue Number 805-A)
Human pancreatic lipase was diluted 1.5:5 prior to use. […] Color formation was measured at 550 nm after 30 minutes.

[1] = molecular target: T2, porcine pancreatic amylase (Sus scrofa, UniProt P00690); experiment: Amylase assay (Sigma INFINITY reagent); format: biochemical, pig; details: tested at 0.12 mg/ml, mean n=3
T2 construct: purchased Sigma A6255
T2 sequence (P00690 16-511): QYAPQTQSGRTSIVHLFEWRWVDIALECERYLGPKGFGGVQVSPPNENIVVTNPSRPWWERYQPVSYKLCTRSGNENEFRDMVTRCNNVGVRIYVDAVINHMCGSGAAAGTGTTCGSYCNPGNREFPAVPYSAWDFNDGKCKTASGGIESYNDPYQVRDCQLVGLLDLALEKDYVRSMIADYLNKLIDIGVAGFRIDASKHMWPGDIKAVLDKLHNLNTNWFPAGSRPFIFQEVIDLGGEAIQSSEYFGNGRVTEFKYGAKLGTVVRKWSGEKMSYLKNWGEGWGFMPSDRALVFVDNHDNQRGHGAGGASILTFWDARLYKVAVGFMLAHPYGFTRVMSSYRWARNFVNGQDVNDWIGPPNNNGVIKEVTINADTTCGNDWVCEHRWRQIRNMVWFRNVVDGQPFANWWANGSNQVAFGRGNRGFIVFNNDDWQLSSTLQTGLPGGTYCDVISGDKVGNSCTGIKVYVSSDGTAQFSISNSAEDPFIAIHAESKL
Experimental: as §1
Sigma INFINITY Powder Reagent (Catalogue Number 568-20)
Sigma α-amylase (A6255, porcine pancreatic amylase as saline suspension), diluted to 35 units/ml. […] The rate of color formation was measured over five minutes, after which the final absorbance was measured at 405 nm as an endpoint recording.

[2] = system: α-glucosidase (G5003, from S. cerevisiae); experiment: α-Glucosidase assay (p-nitrophenyl-α-D-glucopyranoside); format: biochemical; details: tested at 0.28 mg/ml, mean n=3
Experimental: as §1

| α-amylase inhibition (in words, FIG. 2) [1] | Molecule | inhibition at 150 µg/mL (Human pancreatic lipase) [%] | α-glucosidase inhibition (in words, FIG. 2) [2] |
| --- | --- | --- | --- |
|  | CCCCCCCCCCC[C@@H](C[C@@H]1OC(=O)[C@H]1CCCCCC)OC(=O)[C@H](CC(C)C)NC=O [Orlistat] | ≤ 60 |  |
| inhibition to be restored | COc1cc(O)c2c(=O)c(O[C@@H]3O[C@@H](C)[C@H](O)[C@@H](O)[C@H]3O)c(-c3ccc(O)c(O)c3)oc2c1 [compound 3, rhamnitrin] |  |  |
| good inhibition | Oc1ccc(/C=C2\c3cc(O)cc(O)c3C(c3ccc(O)cc3)C2c2cc(O)cc(O)c2)cc1 (stereo not drawn) [compound 6, parthenocissin A] |  |  |
|  | Oc1ccc(C=C2c3c(O)cc(O)cc3C(c3ccc(O)cc3)C2c2cc(O)ccc2O)cc1 (stereo not drawn) [compound 7, 3-(4-hydroxybenzylidene)-2-(2,5-dihydroxyphenyl)-1-(4-hydroxyphenyl)indane-4,6-diol] |  | fairly specific as an inhibitor |

| Molecule | α-amylase inhibition (in words, FIG. 2) [1] | inhibition at 150 µg/mL (Human pancreatic lipase) [%] | α-glucosidase inhibition (in words, FIG. 2) [2] |
| --- | --- | --- | --- |
| quercitrin-3-O″-acetate [compound 5] | inhibition to be restored |  | promoted the glucosidase activity |
